# Where “and” joins values, the source holds several entries; their conditions need not be identical. Equal values may be shown once.
# System: S. Typhimurium PhoP-promoter GFP reporter counterscreen, fluorescence, 4 h
# Test: S. Typhimurium GFP fluorescence modified counterscreen for PhoP regulon inhibitor project dose response (AID 1981)
row,Compound,IC50
1,O=C(CSc1ccccn1)N/N=C/c1cc([N+](=O)[O-])ccc1O,45.6 µM
2,O=S(=O)(Nc1cc(Sc2ncn[nH]2)c(O)c2ccccc12)c1ccccc1,149 µM
3,CCCCOc1ccc(CSC(=N)N)cc1[N+](=O)[O-],131 µM
4,C(=N\Nc1ccccn1)/c1cccnc1,62.2 µM
5,Oc1c(C(c2ccccn2)N2CCOCC2)ccc2cccnc12 (stereo not drawn),118 µM
6,OC(c1cc(C(F)(F)F)nc2c(Cl)cc(Cl)cc12)C1CCCCN1 (stereo not drawn),133 µM
7,COc1cccc(Nc2nc(NCC3CCCO3)c3ccccc3n2)c1 (stereo not drawn),102 µM
8,Cc1cccc(Nc2nc(NCc3ccco3)c3ccccc3n2)c1,37.9 µM
9,CCCCCC(CC(=O)NO)C(=O)NC(C(=O)N1CCCC1CO)C(C)C (stereo not drawn),33.3 µM
10,Cc1nc(NC(=O)c2ccccc2)sc1-c1csc(Nc2ccc(F)cc2)n1,86.4 µM
11,O=C1C(=O)c2ccccc2-c2ccccc21,87.3 µM
12,CO[C@H]1C=CO[C@@]2(C)Oc3c(C)c(O)c4c(O)c(c(C=NN5CCN(C)CC5)c(O)c4c3C2=O)NC(=O)C(C)=CC=C[C@H](C)[C@H](O)[C@@H](C)[C@@H](O)[C@@H](C)[C@H](OC(C)=O)[C@@H]1C,11.2 µM
13,NCCc1c(-c2ccccc2)n(-c2ccccc2)c2ccccc12,83.7 µM
14,CCn1cc(C(=O)O)c(=O)c2cc(F)c(N3CCN(C(=S)NC(=O)c4ccccc4F)CC3)cc21,79.4 µM
15,Oc1c(CN2CCOCC2)cc(COCc2ccccc2)c2cccnc12,98.2 µM
16,NC1=NC[C@H](c2ccccc2)N1CCCCC1CCCCC1,66 µM
17,CC[n+]1c(/C=C/c2ccc(N(C)C)cc2)ccc2ccccc21,91.2 µM
18,O=C(N/N=C\C=C\c1ccc([N+](=O)[O-])o1)c1cccs1,34.8 µM
19,Oc1c(CN2CCN(c3ccc(F)cc3)CC2)cc(Cl)c2cccnc12,32 µM
20,O=C1c2ccccc2C(=O)c2[nH]c(=O)[nH]c21,6.53 µM
21,Oc1c(I)cc(Cl)c2cccnc12,70.7 µM
22,CCCCC(CC)CN=C(N)NC(N)=NCCCCCCN=C(N)NC(N)=NCC(CC)CCCC (stereo not drawn),5.47 µM
23,Cc1ccc(C(C[N+](=O)[O-])c2c(-c3ccccc3O)[nH][nH]c2=O)cc1 (stereo not drawn),39.2 µM
24,Cc1ccc(Nc2cc(C)nn2-c2nc(C)cc(=O)[nH]2)cc1,12.4 µM

row,Compound,IC50
1,CC(=O)NC(c1ccc(Cl)cc1Cl)c1ccc2cccnc2c1O (stereo not drawn),40.2 µM
2,CCCCCNCC(=O)Nc1cccc(C(=O)Nc2cccc(C(F)(F)F)c2)c1,135 µM
3,CCOc1cc(/C=N/N=C(N)N)ccc1OCc1ccc(Cl)cc1,56.8 µM
4,COc1nsnc1NS(=O)(=O)c1ccc(NC(=S)NC(=O)c2cccnc2)cc1,34.4 µM
5,NC1=NC[C@@H](Cc2ccc(O)cc2)N1CCCCC1CCCCC1,40.2 µM
6,O=C(NC(=S)NNC(=O)c1ccccc1O)c1ccco1,41.8 µM
7,CCn1cc(C(=O)O)c(=O)c2cc(F)c(N3CCN(C(=S)Nc4ccccc4OC)CC3)cc21,22 µM
8,O=C(N/N=C/c1cc(O)ccc1Br)c1cccnc1,43.5 µM
9,NC1CCN(c2nc3c(cc2F)c(=O)c(C(=O)O)cn3-c2ccc(F)cc2F)C1 (stereo not drawn),0.53 µM
10,NC1=NC2(CCCCC2)N=C(Nc2ccc(Br)cc2)N1,138 µM
11,O=C(O)CSc1cc(NS(=O)(=O)c2cccc([N+](=O)[O-])c2)c2ccccc2c1O,73.2 µM
12,CC(C)(C)/C(O)=C/c1nc2cc(Cl)ccc2oc1=O,55 µM
13,CCCCNC(=O)c1cn(CC)c2cc(N3CCN(C)CC3)c(F)cc2c1=O,63.6 µM
14,CCOC(=O)C[n+]1c(C)sc2ccc(OC)cc21,133 µM
15,CCN(CC(=O)NC(C)(C)C)C(=O)COc1c(Cl)cc(Cl)c2ccc(C)nc12,136 µM
16,O=C(N/N=C/c1sc2ccccc2c1O)c1cccc2ccccc12,40 µM
17,Cc1scc(C(=O)N/N=C/c2ccc([N+](=O)[O-])o2)c1C,68.7 µM
18,O=CN/N=C/c1c(O)ccc2ccccc12,59.6 µM
19,Clc1ccc(CN2CCC(c3nc4ccc(Cl)cc4[nH]3)CC2)cc1,51.7 µM
20,O=C(O)CCN1C(=O)CC(N2C(=O)/C(=C/c3ccc(Cl)cc3)SC2=S)C1=O (stereo not drawn),22.5 µM
21,CC(=O)NC(c1cccc([N+](=O)[O-])c1)c1ccc2cccnc2c1O (stereo not drawn),72.5 µM
22,C/C(=N\Nc1ncnc2sc(C)c(C)c12)c1ccccn1,33.4 µM
23,OCCNCc1c(OCc2ccc(Cl)cc2)ccc2ccccc12,105 µM
24,Cc1ccccc1NC(=O)CCC(=O)N/N=C/c1cc([N+](=O)[O-])ccc1O,138 µM

row,Compound,IC50
1,O=[N+]([O-])c1cc(Cl)c(O)c2ncccc12,5.99 µM
2,CCCCCCCCCCOC(=O)Cn1c(COc2ccc(C)cc2)[n+](C)c2ccccc21,25.8 µM
3,O=C1NC(=S)S/C1=C\C=C\c1ccc([N+](=O)[O-])o1,29.2 µM
4,S=c1nc(C2CCCCC2)[nH][nH]1,136 µM
5,Clc1ccc(CNCc2cccs2)cc1Cl,123 µM
6,CN(C)S(=O)(=O)c1cccc(NC(=S)N/N=C/c2cc(Br)ccc2O)c1,54.7 µM
7,CCn1cc(C(=O)NCC(C)C)c(=O)c2cc(F)c(N3CCN(C)CC3)cc21,72.6 µM
8,Oc1c(CN2CCCCC2)cc(COCc2ccccc2)c2cccnc12,85.6 µM
9,O=C(Oc1c(Cl)cc(Cl)c2cccnc12)c1ccco1,17.3 µM
10,CN1CCN(C(c2ccc(Cl)cc2)c2cc(Cl)c3cccnc3c2O)CC1 (stereo not drawn),32.9 µM
11,C=C1c2cccc(O)c2C(O)=C2C(=O)[C@]3(O)C(O)=C(C(N)=O)C(=O)[C@@H](N(C)C)[C@@H]3[C@@H](O)[C@H]12,0.39 µM
12,C[C@H]1c2cccc(O)c2C(O)=C2C(=O)[C@]3(O)C(O)=C(C(N)=O)C(=O)[C@@H](N(C)C)C3[C@@H](O)C21 (stereo partly drawn),1.31 µM
13,CN(Cc1ccccc1)CC(O)COc1ccc(CNCc2ccc(Cl)s2)cc1 (stereo not drawn),117 µM
14,Cc1[nH]n(-c2ccccc2)c(=O)c1/C=N/Nc1nncc(-c2ccccc2)n1,22.1 µM
15,CN(C)c1ccc(/C=C/c2ccc3ccccc3[n+]2C)cc1,26.9 µM
16,COC1C(OC(=O)c2ccc(C)[nH]2)C(O)C(Oc2ccc3c(O)c(NC(=O)c4ccc(O)c(CC=C(C)C)c4)c(=O)oc3c2Cl)OC1(C)C (stereo not drawn),19.3 µM
17,O=c1cc2oc3cc(O)c(O)cc3c(-c3ccccc3[N+](=O)[O-])c-2cc1O,56.6 µM
18,Nc1ccc2c(c1)C(=O)C(=O)c1ccccc1-2,10.9 µM
19,O=C(Oc1ccc[nH]c1=O)c1cc([N+](=O)[O-])cc([N+](=O)[O-])c1,79.7 µM
20,O=c1[nH]cc(F)c(=O)[nH]1,4.17 µM
21,O=[N+]([O-])c1ccc(N/N=C/c2ccc[nH]2)cc1,141 µM
22,Oc1ccc(CNc2ccccc2F)c2cccnc12,76.5 µM
23,CN1CCN(c2c(F)cc3c(=O)c(C(=O)O)cn4c3c2SCC4)CC1,7.73 µM and 6.13 µM
24,Cc1ccc(Nc2nc(NCc3ccco3)c3ccccc3n2)cc1,23.6 µM

row,Compound,IC50
1,Oc1cc(Cl)ccc1Oc1ccc(Cl)cc1Cl,0.68 µM
2,CN(C)CCCNc1cc(C(C)(C)C)nc2c(-c3ccccc3)cnn12,83.5 µM
3,Cc1ccc(C)n1-c1cc(S(=O)(=O)N2CCOCC2)ccc1N1CCCC1,138 µM
4,N=c1n(CC(=O)c2ccc(Br)s2)c2ccccc2n1Cc1ccccc1,131 µM
5,CCCCCCCCn1c2c(c(=N)c3ccccc31)CCC2,78.7 µM
6,Nc1cc2nsnc2cc1Br,30.1 µM
7,Oc1ccc(/C=N/Nc2ncc(Br)cn2)c(O)c1,128 µM
8,NC(N)=NN=C1CCCCCCCCCCC1,81.7 µM
9,CCn1cc(C(=O)O)c(=O)c2cc(F)c(N3CCN(C(=S)Nc4ccc(OC)cc4)CC3)cc21,7.49 µM
10,CCC(C)(C)c1ccc(OCCCC[n+]2ccccc2)c(C(C)(C)CC)c1,63.4 µM
11,CS(=O)(=O)c1ccc([C@@H](O)[C@@H](CF)NC(=O)C(Cl)Cl)cc1,7.98 µM
12,COc1cc(C(=O)Oc2c(CN3CCOCC3)cc(Cl)c3cccnc23)cc(OC)c1OC,113 µM
13,N=c1n(Cc2ccccc2)c2ccccc2n1CC(O)COc1ccc(Cl)cc1Cl (stereo not drawn),49.4 µM
14,Nc1nc(F)nc2c1ncn2[C@@H]1O[C@H](CO)[C@@H](O)[C@H]1O,18.3 µM
15,Oc1cccc(Nc2nc(NCC3CCCO3)c3ccccc3n2)c1 (stereo not drawn),148 µM
16,CCCCCN=C(N)N/N=C/c1c[nH]c2ccc(OC)cc12,40.4 µM
17,O=[N+]([O-])c1cc(CN2CCOCC2)c2cccnc2c1O,64.3 µM
18,O=C1NN(c2ccccc2)C(=O)/C1=C\c1coc2ccc(O)cc2c1=O,81.9 µM
19,O=C(Cn1nc(CNc2ccc(Cl)cc2)[n+]2c1CCCCC2)c1ccc(Br)cc1,88.2 µM
20,Cc1nc(N)c(Cc2ccc(Cl)cc2Cl)c(N)n1,86.9 µM
21,CCn1cc(C(=O)O)c(=O)c2cc(F)c(N3CCN(C(=S)NC(=O)c4ccc(OC)cc4)CC3)cc21,13.4 µM
